In PubChem BioAssay AID214 (DTP/NCI, 2004):
Values joined by “and” are separate entries in the source; they are usually repeats but may differ in a detail not shown here. Equal values may be shown once. Records with an inconclusive call do not appear.

Tested on: B6C3F1 mice, colon carcinoma 38 s.c., T/C
Test: NCI In Vivo Anticancer Drug Screen. Data for tumor model Colon Carcinoma 38 (subcutaneous) in B6C3F1 mice
Conditions: higher = larger tumour
Procedure: The antitumor activity of compounds was measured in mice bearing transplantable tumors. Survival or tumor size were measured and the results are expressed as the measurement made in the treated group (T) divided by the measurement made in the vehicle treated control group (C). The tumor model used in this assay is Colon Carcinoma 38 (subcutaneous) in B6C3F1 mice

[1] = endpoint: median tumor weight (est.), dose: 25.0 mg/kg/injection, schedule: Q07DX002 (ip), vehicle: saline
[2] = endpoint: median tumor weight (est.), dose: 50.0 mg/kg/injection, schedule: Q07DX002 (ip), vehicle: saline
[3] = endpoint: median tumor weight (est.), dose: 100.0 mg/kg/injection, schedule: Q07DX002 (ip), vehicle: saline
[4] = endpoint: median tumor weight (est.), dose: 200.0 mg/kg/injection, schedule: Q07DX002 (ip), vehicle: saline
[5] = endpoint: median tumor weight (est.), dose: 25.0 mg/kg/injection, schedule: Q07DX002 (ip), vehicle: Klucel (hydroxypropylcellulose) (HPC)
[6] = endpoint: median tumor weight (est.), dose: 50.0 mg/kg/injection, schedule: Q07DX002 (ip), vehicle: saline with Tween-80
[7] = endpoint: median tumor weight (est.), dose: 100.0 mg/kg/injection, schedule: Q07DX002 (ip), vehicle: saline with Tween-80
[8] = endpoint: median tumor weight (est.), dose: 200.0 mg/kg/injection, schedule: Q07DX002 (ip), vehicle: saline with Tween-80
[9] = endpoint: median tumor weight (est.), dose: 400.0 mg/kg/injection, schedule: Q07DX002 (ip), vehicle: saline with Tween-80
[10] = endpoint: median tumor weight (est.), dose: 800.0 mg/kg/injection, schedule: Q07DX002 (ip), vehicle: saline with Tween-80
[11] = endpoint: median tumor weight (est.), dose: 25.0 mg/kg/injection, schedule: Q07DX002 (ip), vehicle: saline with Tween-80

O=P1(N(CCCl)CCCl)NCCCO1 (centres undefined)
T/C [1]: 44 % of control | T/C [2]: 52 % of control | T/C [3]: 13 % of control | T/C [4]: 7 % of control

CCC(C(=O)O)C(=O)O.[NH2-].[NH2-].[Pt+2]
T/C (endpoint: median tumor weight (est.), dose: 50.0 mg/kg/injection, schedule: Q07DX002 (ip), vehicle: suspension in saline): 61 % of control | T/C (endpoint: median tumor weight (est.), dose: 100.0 mg/kg/injection, schedule: Q07DX002 (ip), vehicle: suspension in saline): 45 % of control | T/C [4]: 62 % of control

O=C(O)c1cc(Cc2ccc(O)c(C(=O)O)c2)ccc1O (tested in a mixture with another compound)
T/C [5]: 71 % of control | T/C (endpoint: median tumor weight (est.), dose: 50.0 mg/kg/injection, schedule: Q07DX002 (ip), vehicle: Klucel (hydroxypropylcellulose) (HPC)): 78 % of control | T/C (endpoint: median tumor weight (est.), dose: 100.0 mg/kg/injection, schedule: Q07DX002 (ip), vehicle: Klucel (hydroxypropylcellulose) (HPC)): 70 % of control | T/C (endpoint: median tumor weight (est.), dose: 200.0 mg/kg/injection, schedule: Q07DX002 (ip), vehicle: Klucel (hydroxypropylcellulose) (HPC)): 115 % of control | T/C (endpoint: median tumor weight (est.), dose: 400.0 mg/kg/injection, schedule: Q07DX002 (ip), vehicle: Klucel (hydroxypropylcellulose) (HPC)): 63 % of control

NC1(C(=O)O)CCCC1
T/C (endpoint: median tumor weight (est.), dose: 50.0 mg/kg/injection, schedule: Q07DX003 (ip), vehicle: saline): 69 % of control | T/C (endpoint: median tumor weight (est.), dose: 100.0 mg/kg/injection, schedule: Q07DX003 (ip), vehicle: saline): 81 % of control | T/C (endpoint: median tumor weight (est.), dose: 200.0 mg/kg/injection, schedule: Q07DX003 (ip), vehicle: saline): 39 % of control

N=C(N)CCCCCCCCC(=N)N
T/C (endpoint: median tumor weight (est.), dose: 6.25 mg/kg/injection, schedule: Q07DX002 (ip), vehicle: Klucel (hydroxypropylcellulose) (HPC)): 169 % of control | T/C (endpoint: median tumor weight (est.), dose: 12.5 mg/kg/injection, schedule: Q07DX002 (ip), vehicle: Klucel (hydroxypropylcellulose) (HPC)): 109 % of control | T/C [5]: 109 % of control

O=C1SC(c2ccccc2)=S=C1c1ccccc1
T/C [6]: 152 % of control | T/C [7]: 114 % of control | T/C [8]: 104 % of control | T/C [9]: 120 % of control | T/C [10]: 104 % of control

O=C(O)C1CC(O)CN1 (centres undefined)
T/C [2]: 93 % of control | T/C [3]: 87 % of control | T/C (endpoint: median tumor weight (est.), dose: 400.0 mg/kg/injection, schedule: Q07DX002 (ip), vehicle: saline): 79 % of control

CCC/C=C/C=C/C(=O)OC1/C(=C/C(=O)OC)CC2CC(C(C)O)OC(=O)CC(O)CC3CC(OC(C)=O)C(C)(C)C(O)(CC4C/C(=C/C(=O)OC)CC(/C=C/C(C)(C)C1(O)O2)O4)O3 (centres undefined)
T/C (endpoint: median tumor weight (est.), dose: 37.5 micrograms/kg/injection, schedule: Q07DX002 (ip), vehicle: saline + alcohol): 191 % of control | T/C (endpoint: median tumor weight (est.), dose: 300.0 micrograms/kg/injection, schedule: Q07DX002 (ip), vehicle: saline + alcohol): 74 % of control

CC(=O)N(C)O
T/C [7]: 124 % of control | T/C [8]: 116 % of control | T/C [9]: 91 % of control | T/C [10]: 101 % of control

Nc1ccc2c(c1)CN1C(=O)c3ccccc3C1=N2
T/C (endpoint: median tumor weight (est.), dose: 6.25 mg/kg/injection, schedule: Q01DX008 (ip), vehicle: other): 90 % of control | T/C (endpoint: median tumor weight (est.), dose: 12.5 mg/kg/injection, schedule: Q01DX008 (ip), vehicle: other): 69 % of control | T/C (endpoint: median tumor weight (est.), dose: 25.0 mg/kg/injection, schedule: Q01DX008 (ip), vehicle: other): 58 % of control | T/C (endpoint: median tumor weight (est.), dose: 25.0 mg/kg/injection, schedule: Q07DX002 (ip), vehicle: other): 82 % of control and 92 % of control | T/C [11]: 60 % of control | T/C (endpoint: median tumor weight (est.), dose: 50.0 mg/kg/injection, schedule: Q01DX008 (ip), vehicle: other): 21 % of control | T/C [6]: 56 % of control | T/C (endpoint: median tumor weight (est.), dose: 100.0 mg/kg/injection, schedule: Q07DX002 (ip), vehicle: other): 49 % of control | T/C [7]: 60 % of control | T/C (endpoint: median tumor weight (est.), dose: 200.0 mg/kg/injection, schedule: Q07DX002 (ip), vehicle: other): 1 % of control | T/C [8]: 35 % of control | T/C (endpoint: median tumor weight (est.), dose: 355.9 mg/kg/injection, schedule: Q07DX002 (oral), vehicle: DMSO): 74 % of control | T/C (endpoint: median tumor weight (est.), dose: 533.6 mg/kg/injection, schedule: Q07DX002 (oral), vehicle: DMSO): 94 % of control | T/C (endpoint: median tumor weight (est.), dose: 800.0 mg/kg/injection, schedule: Q07DX002 (oral), vehicle: DMSO): 76 % of control | T/C (endpoint: median tumor weight (est.), dose: 1200.0 mg/kg/injection, schedule: Q07DX002 (oral), vehicle: DMSO): 122 % of control | T/C (endpoint: optimum tumor weight change, dose: 86.0 mg/kg/injection, schedule: Q07DX002 (ip), vehicle: saline with Tween-80): 77 % of control | T/C (endpoint: optimum tumor weight change, dose: 144.0 mg/kg/injection, schedule: Q07DX002 (ip), vehicle: saline with Tween-80): 84 % of control | T/C (endpoint: optimum tumor weight change, dose: 240.0 mg/kg/injection, schedule: Q07DX002 (ip), vehicle: saline with Tween-80): 84 % of control | T/C (endpoint: optimum tumor weight change, dose: 400.0 mg/kg/injection, schedule: Q07DX002 (ip), vehicle: saline with Tween-80): 71 % of control

Oc1ccc(CCl)c2cccnc12
T/C [1]: 91 % of control | T/C [2]: 105 % of control | T/C [3]: 94 % of control | T/C [4]: 106 % of control

COc1cccc(-c2cc(=O)c3cccc(CC(=O)O)c3o2)c1
T/C [3]: 3 % of control

O.O.[NH-]C1CCCCC1[NH-].[Pt+2] (centres undefined)
T/C (endpoint: median tumor weight (est.), dose: 10.0 mg/kg/injection, schedule: Q07DX002 (ip), vehicle: dextrose): 72 % of control | T/C (endpoint: median tumor weight (est.), dose: 20.0 mg/kg/injection, schedule: Q07DX002 (ip), vehicle: dextrose): 60 % of control | T/C (endpoint: median tumor weight (est.), dose: 40.0 mg/kg/injection, schedule: Q07DX002 (ip), vehicle: dextrose): 29 % of control | T/C (endpoint: median tumor weight (est.), dose: 80.0 mg/kg/injection, schedule: Q07DX002 (ip), vehicle: dextrose): 16 % of control and 17 % of control

CCCCCCCCCCCCCCCCCC(=O)Nc1ccn(C2OC(CO)C(O)C2O)c(=O)n1 (centres undefined)
T/C (endpoint: median tumor weight (est.), dose: 12.5 mg/kg/injection, schedule: Q07DX002 (ip), vehicle: saline with Tween-80): 64 % of control | T/C [11]: 40 % of control | T/C [6]: 49 % of control | T/C [7]: 23 % of control
